In patent publication US8476298B2 (Exelixis, Inc., priority 2003, dated 2013):
pIC50: −log10 of the molar value.

Legend:
[1] = target: T1, Flt-4 (baculovirus expressed human Flt-4 kinase domain D725-R1298) (Homo sapiens, UniProt P35916); assay: flt-4 Alphascreen Tyrosine Kinase assay; format: biochemical; details: Table 4, inhibition as IC50 class; read-out: flt4 IC50;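 also: AlphaScreen chemiluminescence read-out of biotinylated poly(Glu,Tyr) 4:1 phosphorylation via streptavidin donor and PY100 anti-phosphotyrosine acceptor beads, ATP near KM, 1 hr kinase reaction, 10-point dose-response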
T1 construct: human Flt-4 kinase domain D725-R1298; host or cells: baculovirus expression
T1 sequence (P35916 725-1298 isoform P35916-1): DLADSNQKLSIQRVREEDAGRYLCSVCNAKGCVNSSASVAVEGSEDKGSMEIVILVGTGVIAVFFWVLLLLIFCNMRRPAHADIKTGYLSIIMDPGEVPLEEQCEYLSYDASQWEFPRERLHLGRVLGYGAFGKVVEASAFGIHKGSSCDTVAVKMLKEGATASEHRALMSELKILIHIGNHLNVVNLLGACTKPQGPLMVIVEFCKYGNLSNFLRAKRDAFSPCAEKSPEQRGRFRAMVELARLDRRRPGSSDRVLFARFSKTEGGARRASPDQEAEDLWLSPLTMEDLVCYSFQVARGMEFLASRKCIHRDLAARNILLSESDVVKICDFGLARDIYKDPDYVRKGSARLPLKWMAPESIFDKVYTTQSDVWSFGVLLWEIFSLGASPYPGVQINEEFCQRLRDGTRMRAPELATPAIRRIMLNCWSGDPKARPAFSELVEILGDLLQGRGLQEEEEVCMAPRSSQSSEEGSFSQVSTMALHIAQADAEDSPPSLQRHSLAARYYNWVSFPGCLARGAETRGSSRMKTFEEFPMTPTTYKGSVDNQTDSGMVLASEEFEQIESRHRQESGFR
Method: (§1) Kinase activity and compound inhibition are investigated using one or more of the three assay formats described below. The ATP concentrations for each assay are selected to be close to the Michaelis-Menten constant (KM) for each individual kinase. Dose-response experiments are performed at 10 different inhibitor concentrations in a 384-well plate format. […] Typically H is close to unity. c-Met Assay
Biochemical activity for flt-4 was assessed using an Alphascreen Tyrosine Kinase protocol. AlphaScreen™ (Perkin Elmer) technology is a proximity assay employing microparticles. Singlet oxygen derived from a donor bead following laser excitation results in chemiluminescence when in proximity (100 Å) to an acceptor bead due to biomolecular interactions. For the Flt-4 assay, donor beads coated with streptavidin and acceptor beads coated with PY100 anti-phosphotyrosine antibody were used (Perkin Elmer). Biotinylated poly(Glu,Tyr) 4:1 (Perkin Elmer) was used as the substrate. Substrate phosphorylation was measured by addition of donor/acceptor beads by chemiluminescence following donor-acceptor bead complex formation. […] Reaction mixtures were incubated for 1 hr at ambient temperature. […] After 2-16 hr incubation at ambient temperature plates were read using an AlphaQuest reader (Perkin Elmer).

[2] = target: T2, Flt-3 (baculovirus expressed human Flt-3 kinase domain R571-S993) (Homo sapiens, UniProt P36888); assay: biochemical; details: Table 4, inhibition as IC50 class; read-out: flt3 IC50;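 also: Luciferase-coupled chemiluminescent kinase assay, activity read as percent ATP left after a 3 h reaction at room temperature, ATP near KM, 10-point dose-response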
T2 construct: human Flt-3 kinase domain R571-S993; host or cells: baculovirus expression
T2 sequence (P36888 571-993): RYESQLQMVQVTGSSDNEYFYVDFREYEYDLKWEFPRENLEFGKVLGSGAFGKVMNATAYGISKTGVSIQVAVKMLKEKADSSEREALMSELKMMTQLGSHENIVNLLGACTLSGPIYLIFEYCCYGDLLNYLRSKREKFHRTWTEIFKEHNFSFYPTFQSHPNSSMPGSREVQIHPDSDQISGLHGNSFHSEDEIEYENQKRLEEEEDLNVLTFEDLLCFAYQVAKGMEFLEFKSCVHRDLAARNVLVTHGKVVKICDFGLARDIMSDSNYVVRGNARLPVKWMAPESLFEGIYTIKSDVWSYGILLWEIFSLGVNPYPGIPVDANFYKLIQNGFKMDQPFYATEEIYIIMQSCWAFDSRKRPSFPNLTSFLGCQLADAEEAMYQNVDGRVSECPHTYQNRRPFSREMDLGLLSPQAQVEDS
Method: Kinase activity and compound inhibition are investigated using one or more of the three assay formats described below. The ATP concentrations for each assay are selected to be close to the Michaelis-Menten constant (KM) for each individual kinase. Dose-response experiments are performed at 10 different inhibitor concentrations in a 384-well plate format.
Biochemical activity for flt-3 was assessed using a Luciferase-Coupled Chemiluminescent Kinase assay (LCCA) format. Kinase activity was measured as the percent ATP remaining following the kinase reaction. Remaining ATP was detected by luciferase-luciferin-coupled chemiluminescence. […] The mixture is incubated at ambient temperature for 3 hours after which 20 uL luciferase-luciferin mix is added and the chemiluminescent signal read using a Wallac Victor^2 reader.

[3] = target: T3, KDR (baculovirus expressed human KDR kinase domain D807-V1356) (Homo sapiens, UniProt P35968); assay: biochemical; details: Table 4, inhibition as IC50 class;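 also: Luciferase-coupled chemiluminescent kinase assay, activity read as percent ATP left after 4 h reaction at ambient temperature, ATP near KM, 10-point dose-response in 384-well plates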
T3 construct: human KDR kinase domain D807-V1356; host or cells: baculovirus expression
T3 sequence (P35968 807-1356): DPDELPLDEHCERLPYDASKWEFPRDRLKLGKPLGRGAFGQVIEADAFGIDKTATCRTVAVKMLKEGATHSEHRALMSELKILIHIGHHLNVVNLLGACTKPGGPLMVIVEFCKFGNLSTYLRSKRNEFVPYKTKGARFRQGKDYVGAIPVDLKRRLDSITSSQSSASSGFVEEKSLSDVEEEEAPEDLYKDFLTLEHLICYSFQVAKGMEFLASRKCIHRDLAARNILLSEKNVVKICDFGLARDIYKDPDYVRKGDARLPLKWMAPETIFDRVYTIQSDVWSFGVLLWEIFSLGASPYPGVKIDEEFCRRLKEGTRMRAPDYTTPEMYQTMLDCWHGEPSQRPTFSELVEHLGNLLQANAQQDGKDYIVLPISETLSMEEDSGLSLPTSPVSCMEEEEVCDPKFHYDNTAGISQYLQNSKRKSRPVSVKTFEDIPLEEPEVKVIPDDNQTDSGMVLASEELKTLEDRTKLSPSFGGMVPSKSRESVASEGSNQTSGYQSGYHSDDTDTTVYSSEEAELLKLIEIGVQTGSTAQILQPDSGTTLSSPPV

[4] = target: T4, c-Met (baculovirus expressed human c-Met kinase domain P948-S1343) (Homo sapiens, UniProt P08581); assay: c-Met Luciferase-Coupled Chemiluminescent Kinase assay (LCCA); format: biochemical; details: Table 4, inhibition as IC50 class;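 also: kinase activity read as percent ATP left after reaction, by luciferase-luciferin chemiluminescence, with 1 µM ATP and 1 µM poly-EY substrate, 2 h at ambient temperature, 10-point dose-response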
T4 construct: human c-Met kinase domain P948-S1343; host or cells: baculovirus expression
T4 sequence (P08581 1011-1343 limits assumed): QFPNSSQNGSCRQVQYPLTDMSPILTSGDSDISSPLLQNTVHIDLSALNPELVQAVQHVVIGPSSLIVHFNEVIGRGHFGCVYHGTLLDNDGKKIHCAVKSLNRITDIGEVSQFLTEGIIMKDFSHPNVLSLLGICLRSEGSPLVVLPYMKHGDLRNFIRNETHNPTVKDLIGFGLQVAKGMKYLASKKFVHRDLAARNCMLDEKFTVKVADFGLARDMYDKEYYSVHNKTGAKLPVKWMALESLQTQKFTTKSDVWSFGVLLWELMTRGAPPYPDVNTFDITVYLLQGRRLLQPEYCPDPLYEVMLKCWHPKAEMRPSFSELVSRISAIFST
Method: as §1
c-Met biochemical activity was assessed using a Luciferase-Coupled Chemiluminescent Kinase assay (LCCA) format as described above. Again, kinase activity was measured as the percent ATP remaining following the kinase reaction. Remaining ATP was detected by luciferase-luciferin-coupled chemiluminescence. Specifically, the reaction was initiated by mixing test compounds, 1 μM ATP, 1 μM poly-EY and 10 nM c-Met (baculovirus expressed human c-Met kinase domain P948-S1343) in a 20 uL assay buffer (20 mM Tris-HCL pH7.5, 10 mM MgCl2, 0.02% Triton X-100, 100 mM DTT, 2 mM MnCu2). The mixture is incubated at ambient temperature for 2 hours after which 20 uL luciferase-luciferin mix is added and the chemiluminescent signal read using a Wallac Victor^2 reader.

[5] = target: c-Kit kinase (Homo sapiens, UniProt P10721); assay: c-Kit AlphaScreen kinase assay; format: biochemical; details: Table 4, inhibition as IC50 class;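 also: c-Kit kinase phosphorylating biotinylated poly(Glu,Tyr), ATP near its KM, 1 h reaction at ambient temperature, AlphaScreen chemiluminescence with streptavidin donor and anti-phosphotyrosine acceptor beads, 10-point inhibitor titration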
Sequence of c-Kit kinase (P10721 26-976): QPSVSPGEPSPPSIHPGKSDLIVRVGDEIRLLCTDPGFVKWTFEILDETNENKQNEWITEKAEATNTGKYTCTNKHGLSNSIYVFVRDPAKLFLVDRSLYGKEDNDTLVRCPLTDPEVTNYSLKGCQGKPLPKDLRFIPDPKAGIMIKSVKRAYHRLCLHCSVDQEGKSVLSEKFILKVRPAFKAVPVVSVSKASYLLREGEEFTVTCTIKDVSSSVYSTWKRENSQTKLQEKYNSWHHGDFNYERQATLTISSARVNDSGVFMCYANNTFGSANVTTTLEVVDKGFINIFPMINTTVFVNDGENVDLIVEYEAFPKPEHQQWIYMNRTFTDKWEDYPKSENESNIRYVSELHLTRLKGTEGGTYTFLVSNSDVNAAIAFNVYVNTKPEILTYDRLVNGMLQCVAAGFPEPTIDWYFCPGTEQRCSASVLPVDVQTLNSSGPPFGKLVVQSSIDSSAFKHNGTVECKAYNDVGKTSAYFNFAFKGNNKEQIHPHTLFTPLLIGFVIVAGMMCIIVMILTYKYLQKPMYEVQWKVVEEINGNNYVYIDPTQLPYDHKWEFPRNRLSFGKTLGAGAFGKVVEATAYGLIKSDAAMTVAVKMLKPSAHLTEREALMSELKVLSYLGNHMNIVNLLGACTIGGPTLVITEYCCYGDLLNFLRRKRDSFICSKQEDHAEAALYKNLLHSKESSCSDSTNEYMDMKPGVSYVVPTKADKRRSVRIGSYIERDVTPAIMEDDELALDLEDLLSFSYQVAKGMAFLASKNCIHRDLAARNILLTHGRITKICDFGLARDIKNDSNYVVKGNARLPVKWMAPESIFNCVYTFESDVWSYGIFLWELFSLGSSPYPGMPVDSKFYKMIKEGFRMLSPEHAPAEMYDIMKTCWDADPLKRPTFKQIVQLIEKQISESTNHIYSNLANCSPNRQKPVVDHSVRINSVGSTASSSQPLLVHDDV

Compound | pIC50 [1] | pIC50 [2] | pIC50 [3] | pIC50 [4] | pIC50 [5]
COc1cc2c(Oc3ccc(NC(=O)C(=O)NCCc4ccc(F)cc4)cc3F)ccnc2cc1OCC1CCN(C)CC1 [Example 258, N-{3-fluoro-4-[(6-(methyloxy)-7-{[(1-methylpiperidin-4-yl)methyl]oxy}quinolin-4-yl)oxy]phenyl}-N′-[2-(4-fluorophenyl)ethyl]ethanediamide] | > 7.30 | > 7.30 | > 7.30 | > 7.30 | > 7.30
COc1cc2c(Oc3ccc(NC(=O)C(=O)Nc4ccccc4)cc3F)ccnc2cc1OCC1CCN(C)CC1 [Example 259, N-{3-fluoro-4-[(6-(methyloxy)-7-{[(1-methylpiperidin-4-yl)methyl]oxy}quinolin-4-yl)oxy]phenyl}-N′-phenylethanediamide] | 6.30 to 7.30 | 5.30 to 6.30 | 6.30 to 7.30 | > 7.30 | 5.30 to 6.30
COc1cc2c(Oc3ccc(NC(=O)C(=O)Nc4cccc(F)c4)cc3F)ccnc2cc1OCC1CCNCC1 [Example 260, N-[3-fluoro-4-({6-(methyloxy)-7-[(piperidin-4-ylmethyl)oxy]quinolin-4-yl}oxy)phenyl]-N′-(3-fluorophenyl)ethanediamide] | 5.30 to 6.30 | 5.30 to 6.30 | 5.30 to 6.30 | > 7.30 | 6.30 to 7.30
COc1cc2c(Oc3ccc(NC(=O)C(=O)Nc4ccc(F)c(Cl)c4)cc3F)ccnc2cc1OCC1CCNCC1 [Example 261, N-(3-chloro-4-fluorophenyl)-N′-[3-fluoro-4-({6-(methyloxy)-7-[(piperidin-4-ylmethyl)oxy]quinolin-4-yl}oxy)phenyl]ethanediamide] | 6.30 to 7.30 | 6.30 to 7.30 | 5.30 to 6.30 | > 7.30 | 5.30 to 6.30
COc1ccc(NC(=O)C(=O)Nc2ccc(Oc3ccnc4cc(OCC5CCNCC5)c(OC)cc34)c(F)c2)cc1OC [Example 262, N-[3,4-bis(methyloxy)phenyl]-N′-[3-fluoro-4-({6-(methyloxy)-7-[(piperidin-4-ylmethyl)oxy]quinolin-4-yl}oxy)phenyl]ethanediamide] | 6.30 to 7.30 | 6.30 to 7.30 | 5.30 to 6.30 | > 7.30 | 5.30 to 6.30
COc1cc2c(Oc3ccc(NC(=O)C(=O)NCCC(C)C)cc3F)ccnc2cc1OCC1CCNCC1 [Example 263, N-[3-fluoro-4-({6-(methyloxy)-7-[(piperidin-4-ylmethyl)oxy]quinolin-4-yl}oxy)phenyl]-N′-(3-methylbutyl)ethanediamide] | 6.30 to 7.30 | 6.30 to 7.30 | 6.30 to 7.30 | > 7.30 | > 7.30
COc1cc2c(Oc3ccc(NC(=O)C(=O)NCCC(C)(C)C)cc3F)ccnc2cc1OCC1CCNCC1 [Example 264, N-(3,3-dimethylbutyl)-N′-[3-fluoro-4-({6-(methyloxy)-7-[(piperidin-4-ylmethyl)oxy]quinolin-4-yl}oxy)phenyl]ethanediamide] | 6.30 to 7.30 | > 7.30 | > 7.30 | > 7.30 | > 7.30
COc1cc2c(Oc3ncc(NC(=O)CC(=O)Nc4ccc(F)cc4)cc3Cl)ccnc2cc1OCCCN1CCCCC1 [Example 265, N-[5-chloro-6-({6-(methyloxy)-7-[(3-piperidin-1-ylpropyl)oxy]quinolin-4-yl}oxy)pyridin-3-yl]-N′-(4-fluorophenyl)propanediamide] | 6.30 to 7.30 | > 7.30 | 6.30 to 7.30 | > 7.30 | 6.30 to 7.30
COc1cc2c(Oc3ncc(NC(=O)CC(=O)Nc4ccc(F)cc4)cc3Cl)ccnc2cc1OCCCN1CCOCC1 [Example 266, N-[5-chloro-6-({6-(methyloxy)-7-[(3-morpholin-4-ylpropyl)oxy]quinolin-4-yl}oxy)pyridin-3-yl]-N′-(4-fluorophenyl)propanediamide] | 6.30 to 7.30 | > 7.30 | 6.30 to 7.30 | > 7.30 | 6.30 to 7.30
CCN(CC)CCCOc1cc2nccc(Oc3ncc(NC(=O)CC(=O)Nc4ccc(F)cc4)cc3Cl)c2cc1OC [Example 267, N-(5-chloro-6-{[7-{[3-(diethylamino)propyl]oxy}-6-(methyloxy)quinolin-4-yl]oxy}pyridin-3-yl)-N′-(4-fluorophenyl)propanediamide] | 6.30 to 7.30 | > 7.30 | 6.30 to 7.30 | > 7.30 | 6.30 to 7.30
CCCCc1ccc(CNC(=O)C(=O)Nc2ccc(Oc3ccnc4cc(OCC5CCNCC5)c(OC)cc34)c(F)c2)cc1 [Example 270, N-[(4-butylphenyl)methyl]-N′-[3-fluoro-4-({6-(methyloxy)-7-[(piperidin-4-ylmethyl)oxy]quinolin-4-yl}oxy)phenyl]ethanediamide] | 6.30 to 7.30 | 6.30 to 7.30 | 6.30 to 7.30 | > 7.30 | 6.30 to 7.30
COc1cc2c(Oc3ccc(NC(=O)C(=O)NCCc4ccc(C)cc4)cc3F)ccnc2cc1OCC1CCNCC1 [Example 271, N-[3-fluoro-4-({6-(methyloxy)-7-[(piperidin-4-ylmethyl)oxy]quinolin-4-yl}oxy)phenyl]-N′-[2-(4-methylphenyl)ethyl]ethanediamide] | 6.30 to 7.30 | > 7.30 | 6.30 to 7.30 | > 7.30 | 6.30 to 7.30
COc1cc2c(Oc3ccc(NC(=O)C(=O)NCc4ccccn4)cc3F)ccnc2cc1OCC1CCNCC1 [Example 274, N-[3-fluoro-4-({6-(methyloxy)-7-[(piperidin-4-ylmethyl)oxy]quinolin-4-yl}oxy)phenyl]-N′-(pyridin-2-ylmethyl)ethanediamide] | 6.30 to 7.30 | 6.30 to 7.30 | 6.30 to 7.30 | > 7.30 | 6.30 to 7.30
COc1cc2c(Oc3ccc(NC(=O)C(=O)NCCc4ccccc4)cc3F)ncnc2cc1OCC1CCNCC1 [Example 275, N-[3-fluoro-4-({6-(methyloxy)-7-[(piperidin-4-ylmethyl)oxy]quinazolin-4-yl}oxy)phenyl]-N′-(2-phenylethyl)ethanediamide] | > 7.30 | > 7.30 | > 7.30 | > 7.30 | > 7.30
COc1cc2c(Oc3ccc(NC(=O)C(=O)NCCc4ccccc4)cc3F)ncnc2cc1OCC1CCN(C)CC1 [Example 276, N-{3-fluoro-4-[(6-(methyloxy)-7-{[(1-methylpiperidin-4-yl)methyl]oxy}quinazolin-4-yl)oxy]phenyl}-N′-(2-phenylethyl)ethanediamide] | > 7.30 | > 7.30 | > 7.30 | > 7.30 | > 7.30
COc1cc2c(Oc3ccc(NC(=O)C(=O)NCc4cccc(C(F)(F)F)c4F)cc3F)ccnc2cc1OCC1CCNCC1 [Example 277, N-[3-fluoro-4-({6-(methyloxy)-7-[(piperidin-4-ylmethyl)oxy]quinolin-4-yl}oxy)phenyl]-N′-{[2-fluoro-3-(trifluoromethyl)phenyl]methyl}ethanediamide] | > 7.30 | > 7.30 | > 7.30 | > 7.30 | > 7.30
COc1ccc(CCN(C)C(=O)C(=O)Nc2ccc(Oc3ccnc4cc(OCC5CCNCC5)c(OC)cc34)c(F)c2)cc1OC [Example 279, N-{2-[3,4-bis(methyloxy)phenyl]ethyl}-N′-[3-fluoro-4-({6-(methyloxy)-7-[(piperidin-4-ylmethyl)oxy]quinolin-4-yl}oxy)phenyl]-N-methylethanediamide] | 6.30 to 7.30 | > 7.30 | 6.30 to 7.30 | 6.30 to 7.30 | 6.30 to 7.30
